Laboratory results reported in ChEMBL document CHEMBL3885861, “Open TG-GATES”.

Species on record: Rattus norvegicus
Test: Open TG-GATES - Regimen: Daily Repeat
Assay type: toxicity, organism-based, Sprague-Dawley
Set-up: regimen Daily Repeat, gender Male, age 6 weeks
Conditions: in vivo, po, route gavage; for APTT / Bas / Eos / Fbg / Ht / Lym / MCHC / MCV / Mono / PT / Plat / RBC / Ret / WBC: tissue Blood; for KIDNEY_L / KIDNEY_R / KIDNEY_TOTAL: tissue Kidney; for LIVER: tissue Liver; for ALP / ALT / AST / BUN / CRE / Ca / Cl / DBIL / IP / LDH / Na / PL / RALB / TBIL / TC / TG / TP / gamma-GTP: tissue Plasma
[1] = 120 mg/kg, 72 h, dose level Middle, time 3 day
[2] = 120 mg/kg, […], dose level Middle, time 7 day
[3] = 120 mg/kg, […], dose level Middle, time 14 day
[4] = 120 mg/kg, […], dose level Middle, time 28 day
[5] = 400 mg/kg, 72 h, dose level High, time 3 day
[6] = 400 mg/kg, […], dose level High, time 7 day
[7] = 400 mg/kg, […], dose level High, time 14 day
[8] = 400 mg/kg, […], dose level High, time 28 day

CC(C)N(CCC(C(N)=O)(c1ccccc1)c1ccccn1)C(C)C (stereo not given) [DISOPYRAMIDE]
APTT [1]: 20.4 s | Bas [1]: 0% | Eos [1]: 1% | Fbg [1]: 319.6 mg/dL | Ht [1]: 41.1% | Lym [1]: 78.4% | MCHC [1]: 32.2% | MCV [1]: 62.6 fL | Mono [1]: 2.6% | PT [1]: 15.5 s | Plat [1]: 125 x10_4/uL | RBC [1]: 657.8 x10_4/ul | Ret [1]: 5.3% | WBC [1]: 107.5 x10_2/uL | KIDNEY_L [1]: 1 g | KIDNEY_R [1]: 1 g | KIDNEY_TOTAL [1]: 2 g | LIVER [1]: 10.6 g | ALP [1]: 1634.4 IU/L | ALT [1]: 52.4 IU/L | AST [1]: 74 IU/L | BUN [1]: 15.6 mg/dL | CRE [1]: 0.2 mg/dL | Ca [1]: 10.8 mg/dL | Cl [1]: 106.6 meq/L | DBIL [1]: 0 mg/dL | IP [1]: 7.7 mg/dL | LDH [1]: 174.6 IU/L | Na [1]: 142.8 meq/L | PL [1]: 151.2 mg/dL | RALB [1]: 2.9 g/dL | TBIL [1]: 0 mg/dL | TC [1]: 79.2 mg/dL | TG [1]: 111.8 mg/dL | TP [1]: 5.4 g/dL | gamma-GTP [1]: 1.6 IU/L | TERMINAL_BW [2]: 247.4 g | TERMINAL_BW [3]: 313.2 g | TERMINAL_BW [4]: 369.7 g | APTT [2]: 21.5 s | Bas [2]: 0% | Eos [2]: 1% | Fbg [2]: 327.2 mg/dL | Ht [2]: 41% | Lym [2]: 82% | MCHC [2]: 32.6% | MCV [2]: 59.6 fL | Mono [2]: 1.8% | PT [2]: 15.8 s | Plat [2]: 116.6 x10_4/uL | RBC [2]: 688.8 x10_4/ul | Ret [2]: 5.7% | WBC [2]: 102 x10_2/uL | APTT [3]: 23.1 s | Bas [3]: 0% | Eos [3]: 0.8% | Fbg [3]: 331.4 mg/dL | Ht [3]: 41.2% | Lym [3]: 79.8% | MCHC [3]: 32.5% | MCV [3]: 58.9 fL | Mono [3]: 2.4% | PT [3]: 15.5 s | Plat [3]: 117.3 x10_4/uL | RBC [3]: 700.2 x10_4/ul | Ret [3]: 4.5% | WBC [3]: 125.1 x10_2/uL | APTT [4]: 24.7 s | Bas [4]: 0% | Eos [4]: 1% | Fbg [4]: 323.2 mg/dL | Ht [4]: 42.5% | Lym [4]: 79.2% | MCHC [4]: 33.7% | MCV [4]: 55.5 fL | Mono [4]: 2.4% | PT [4]: 15.2 s | Plat [4]: 103.8 x10_4/uL | RBC [4]: 768.2 x10_4/ul | Ret [4]: 2.6% | WBC [4]: 105.7 x10_2/uL | KIDNEY_L [2]: 1.1 g | KIDNEY_R [2]: 1.1 g | KIDNEY_TOTAL [2]: 2.2 g | KIDNEY_L [3]: 1.2 g | KIDNEY_R [3]: 1.3 g | KIDNEY_TOTAL [3]: 2.5 g | KIDNEY_L [4]: 1.4 g | KIDNEY_R [4]: 1.5 g | KIDNEY_TOTAL [4]: 2.9 g | LIVER [2]: 11.4 g | LIVER [3]: 14.2 g | LIVER [4]: 15.6 g | ALP [2]: 1449.8 IU/L | ALT [2]: 48.2 IU/L | AST [2]: 77.4 IU/L | BUN [2]: 16.4 mg/dL | CRE [2]: 0.2 mg/dL | Ca [2]: 10.6 mg/dL | Cl [2]: 106.2 meq/L | DBIL [2]: 0 mg/dL | IP [2]: 7.5 mg/dL | LDH [2]: 167.8 IU/L | Na [2]: 141.6 meq/L | PL [2]: 145 mg/dL | RALB [2]: 3 g/dL | TBIL [2]: 0 mg/dL | TC [2]: 75.8 mg/dL | TG [2]: 107.8 mg/dL | TP [2]: 5.5 g/dL | gamma-GTP [2]: 1.4 IU/L | ALP [3]: 1779.4 IU/L | ALT [3]: 41.4 IU/L | AST [3]: 64.8 IU/L | BUN [3]: 15.6 mg/dL | CRE [3]: 0.1 mg/dL | Ca [3]: 10.6 mg/dL | Cl [3]: 105.6 meq/L | DBIL [3]: 0 mg/dL | IP [3]: 7.1 mg/dL | LDH [3]: 139.4 IU/L | Na [3]: 142.6 meq/L | PL [3]: 146.6 mg/dL | RALB [3]: 3.1 g/dL | TBIL [3]: 0.004 mg/dL | TC [3]: 66 mg/dL | TG [3]: 194 mg/dL | TP [3]: 5.8 g/dL | gamma-GTP [3]: 2 IU/L | ALP [4]: 1162.8 IU/L | ALT [4]: 55 IU/L | AST [4]: 85.2 IU/L | BUN [4]: 17 mg/dL | CRE [4]: 0.2 mg/dL | Ca [4]: 10.7 mg/dL | Cl [4]: 106.4 meq/L | DBIL [4]: 0 mg/dL | IP [4]: 6.7 mg/dL | LDH [4]: 190.2 IU/L | Na [4]: 140.6 meq/L | PL [4]: 151 mg/dL | RALB [4]: 2.9 g/dL | TBIL [4]: 0.012 mg/dL | TC [4]: 79.6 mg/dL | TG [4]: 112.4 mg/dL | TP [4]: 5.9 g/dL | gamma-GTP [4]: 2.2 IU/L | TERMINAL_BW [5]: 214.9 g | APTT [5]: 22.4 s | Bas [5]: 0% | Eos [5]: 0.8% | Fbg [5]: 351.2 mg/dL | Ht [5]: 42.4% | Lym [5]: 73.2% | MCHC [5]: 32.4% | MCV [5]: 62.3 fL | Mono [5]: 2% | PT [5]: 15.6 s | Plat [5]: 129.4 x10_4/uL | RBC [5]: 681.2 x10_4/ul | Ret [5]: 3.3% | WBC [5]: 80.5 x10_2/uL | KIDNEY_L [5]: 0.9 g | KIDNEY_R [5]: 1 g | KIDNEY_TOTAL [5]: 1.9 g | LIVER [5]: 9.5 g | ALP [5]: 1597.6 IU/L | ALT [5]: 40.4 IU/L | AST [5]: 70.2 IU/L | BUN [5]: 12.8 mg/dL | CRE [5]: 0.2 mg/dL | Ca [5]: 10.8 mg/dL | Cl [5]: 107.2 meq/L | DBIL [5]: 0 mg/dL | IP [5]: 7.4 mg/dL | LDH [5]: 182.6 IU/L | Na [5]: 143 meq/L | PL [5]: 137.8 mg/dL | RALB [5]: 2.9 g/dL | TBIL [5]: 0 mg/dL | TC [5]: 74.4 mg/dL | TG [5]: 83.6 mg/dL | TP [5]: 5.5 g/dL | gamma-GTP [5]: 1.4 IU/L | TERMINAL_BW [6]: 229.8 g | TERMINAL_BW [7]: 278.8 g | TERMINAL_BW [8]: 316.5 g | APTT [6]: 23.9 s | Bas [6]: 0% | Eos [6]: 1.2% | Fbg [6]: 346.8 mg/dL | Ht [6]: 41.6% | Lym [6]: 74.4% | MCHC [6]: 33.3% | MCV [6]: 60.2 fL | Mono [6]: 3% | PT [6]: 15.7 s | Plat [6]: 112.7 x10_4/uL | RBC [6]: 691.2 x10_4/ul | Ret [6]: 4.2% | WBC [6]: 123.8 x10_2/uL | APTT [7]: 25.3 s | Bas [7]: 0% | Eos [7]: 1% | Fbg [7]: 316.4 mg/dL | Ht [7]: 41.7% | Lym [7]: 79.4% | MCHC [7]: 32.7% | MCV [7]: 58.7 fL | Mono [7]: 1.8% | PT [7]: 15.2 s | Plat [7]: 102.3 x10_4/uL | RBC [7]: 710.4 x10_4/ul | Ret [7]: 4.4% | WBC [7]: 103 x10_2/uL | APTT [8]: 26 s | Bas [8]: 0% | Eos [8]: 1.2% | Fbg [8]: 345.5 mg/dL | Ht [8]: 44.9% | Lym [8]: 79% | MCHC [8]: 33.7% | MCV [8]: 55.6 fL | Mono [8]: 2.5% | PT [8]: 15.3 s | Plat [8]: 98.6 x10_4/uL | RBC [8]: 808.8 x10_4/ul | Ret [8]: 2.4% | WBC [8]: 105 x10_2/uL | KIDNEY_L [6]: 1 g | KIDNEY_R [6]: 1 g | KIDNEY_TOTAL [6]: 2 g | KIDNEY_L [7]: 1.1 g | KIDNEY_R [7]: 1.2 g | KIDNEY_TOTAL [7]: 2.3 g | KIDNEY_L [8]: 1.2 g | KIDNEY_R [8]: 1.3 g | KIDNEY_TOTAL [8]: 2.5 g | LIVER [6]: 11 g | LIVER [7]: 12.8 g | LIVER [8]: 13.4 g | ALP [6]: 1394 IU/L | ALT [6]: 45 IU/L | AST [6]: 67.2 IU/L | BUN [6]: 14.8 mg/dL | CRE [6]: 0.2 mg/dL | Ca [6]: 10.8 mg/dL | Cl [6]: 105.4 meq/L | DBIL [6]: 0 mg/dL | IP [6]: 8 mg/dL | LDH [6]: 160.8 IU/L | Na [6]: 141.6 meq/L | PL [6]: 170.6 mg/dL | RALB [6]: 2.9 g/dL | TBIL [6]: 0 mg/dL | TC [6]: 80.6 mg/dL | TG [6]: 195.4 mg/dL | TP [6]: 5.4 g/dL | gamma-GTP [6]: 1.4 IU/L | ALP [7]: 1544.2 IU/L | ALT [7]: 44 IU/L | AST [7]: 68 IU/L | BUN [7]: 15.2 mg/dL | CRE [7]: 0.1 mg/dL | Ca [7]: 10.6 mg/dL | Cl [7]: 104.2 meq/L | DBIL [7]: 0 mg/dL | IP [7]: 7.9 mg/dL | LDH [7]: 149.6 IU/L | Na [7]: 143.2 meq/L | PL [7]: 149.6 mg/dL | RALB [7]: 3 g/dL | TBIL [7]: 0.002 mg/dL | TC [7]: 74.4 mg/dL | TG [7]: 147.2 mg/dL | TP [7]: 5.6 g/dL | gamma-GTP [7]: 1.6 IU/L | ALP [8]: 1456 IU/L | ALT [8]: 66 IU/L | AST [8]: 98.2 IU/L | BUN [8]: 17.5 mg/dL | CRE [8]: 0.2 mg/dL | Ca [8]: 10.4 mg/dL | Cl [8]: 106 meq/L | DBIL [8]: 0 mg/dL | IP [8]: 6.6 mg/dL | LDH [8]: 170.5 IU/L | Na [8]: 141.2 meq/L | PL [8]: 152.5 mg/dL | RALB [8]: 3 g/dL | TBIL [8]: 0 mg/dL | TC [8]: 75.5 mg/dL | TG [8]: 165.2 mg/dL | TP [8]: 5.8 g/dL | gamma-GTP [8]: 2 IU/L
